Test results reported in US5861477A (priority 1996, dated 1999).
“Also recorded” adds a separate entry of the source. Read-outs that look alike come from different tables or passages of the source. Bridges are numbered along the chain shown (N, C = ends). Where no end group is shown, it is not given here.

Key:
TrPepz = TrPepz (synthetic cyclic peptide catalyst mimicking the active site of trypsin); settings: up to 3 hrs
[1] = Chymotryptic activity: hydrolysis of BTEE; format: biochemical; settings: in words
Procedure: Chymotryptic activity. The catalytic activity of αCT and CHPepz was determined by hydrolysis of BTEE in 0.08M Tris buffer, pH 7.8 containing 0.01M CaCl2 as described (Hummel, B. C. W. (1959) Can. J. Biochem. Physiol. 37, 1393-1399). Assays were done at 25° C. using 8.06×10^-4 μmoles of αCT or 7.49×10^-4 μmoles of ChPepz and different substrate concentrations (from 3 to 6 mM) in a total reaction volume of 1.0 ml. The change of absorbance at 256 nm was monitored on a recording spectrophotometer against a reference cuvette containing 1 ml of the same concentration of BTEE, but without αCT or ChPepz.
1.0 ml of substrate (BTEE) was mixed with solutions (10 μl aliquots) of ChPepz, or negative control peptides (containing 1-10 μg/10 μl) or αCT and activity was monitored by increase in absorbance at 256 nm at 37° C. (or at room temperature).
ChPepz solution was made in 10^-3 N HCl, since it will not digest itself in this solvent. Solutions of ChPepz were always made immediately before use. […] After mixing ChPepz with substrate (BTEE), there was typically a lag of 2-5 min (depending on pepzyme/substrate ratio) before any change in A256 was observed. However, in the early stages of the purification, the activity needed to be monitored over a period of several hours. It was important to ensure that negative controls (containing unrelated peptides in amounts similar to those of ChPepz in the test samples) were also monitored at the same time because the background absorbance will increase and the test samples had to be corrected for this background. As the sample's purity improves, maximum A256 was achieved more quickly. See, e.g., Atassi, M. Z. in Immunochemistry of Proteins, ed. […]
Tryptic activity. […] Kinetic constants for hydrolysis of BTEE and TAME were determined from the linear plots of 1/initial velocity (Vi in μmoles/min) versus 1/substrate concentration as described (Lineweaver, H. and Burk, D. (1934) J. Amer. Chem. Soc. 56, 658).
Inhibition of Enzymatic Activity. […] Activities were monitored spectrophotometrically as above and were compared to uninhibited controls. […]

myoglobin and casein = assay: Hydrolysis of proteins by enzymes or peptide enzyme catalysts (peptide maps); format: biochemical, sperm-whale (myoglobin), bovine (casein)
Procedure: Hydrolysis of Proteins by Enzymes or Peptide Enzyme Catalysts. Hydrolyses were done at 37° C. on aliquots (200 μl) containing 1 mg of myoglobin (5.6×10-2 μmoles) or casein (4.2×10^-2 μmoles) in 0.1M triethylamine-acetic acid buffer, pH 8.0 with 51 μg of αCT (2.06×10^-3 μmoles) and 2.9 μg of ChPepz (1.1×10^-3 μmoles) for 31/2 hrs or with 49 μg trypsin (2.06×10^-3 μmoles) and 5.0 μg TrPepz (1.87×10^-3 μmoles) for 8 hrs. The samples were then acidified (to pH 3.0) with 0.1M HCl freeze-dried and redissolved in 100 μl of H2 O at pH 3.0, and the entire sample was applied as a single spot to Whatman No. 3MM paper and subjected, in the first dimension, to ascending chromatography in n-butanol-acetic acid-water (4:1:5, vol/vol) followed by high voltage electrophoresis (3000 volts, 55 min), in the second dimension, in pyridine-acetic acid-water (1:10:289, vol/vol), pH 3.65, as described (Atassi, M. Z. and Saplin, B. J. (1968) Biochemistry 7, 688-698). The papers were then dried, steamed and stained with 0.2% ninhydrin in ethanol and the color was allowed to develop at room temperature. The papers were photographed 48 hrs after staining.

[2] = Tryptic activity: hydrolysis of TAME; format: biochemical; settings: for Km / kcat / kcat /Km: hydrolysis of TAME, pH 8.0 and 25° C.
Procedure: Tryptic activity. Measurement of tryptic activity was done in 0.046M Tris-HCl buffer, pH 8.0, containing 0.0115M CaCl2 as described (Hummel, B. C. W. (1959), id) using TAME as the substrate. For the assays, 8.4×10^-4 μmoles of […] or 1.6 c 10^-3 μmoles of TrPepz were allowed to hydrolyze different amounts of substrate at 25° C. in a total reaction volume of 1.0 ml. […] Kinetic constants for hydrolysis of BTEE and TAME were determined from the linear plots of 1/initial velocity (Vi in μmoles/min) versus 1/substrate concentration as described (Lineweaver, H. and Burk, D. (1934) J. Amer. Chem. Soc. 56, 658).
To TAME solutions (1 ml containing different amounts of substrate), an aliquot (10 μl) of TrPepz, or negative control peptide solutions (containing 1-10 μg/10 μl) was added, mixed immediately and the increase of absorbance at 247 nm was measured at 37° C. (or at room temperature).
TrPepz solutions were always made immediately before use. Although TrPepz has no potential tryptic cleavage points, it lost activity on standing in solution at 4° C. […] TrPepz will not act on chromogenic substrates--it was inhibited by p-nitro analine (and probably is inhibited by other aromatic amines). After mixing TrPepz with substrate, there was a lag of 2-5 minutes (depending on pepzyme/substrate ratio) before any change in A247 was observed. In the early stages of the purification, the activity was always monitored over a period of several hours. Negative controls (containing unrelated peptides in amounts similar to those of TrPepz in the test samples) were also monitored at the same time because the background absorbance will increase and the test samples had to be corrected for this background. As the sample's purity improved, maximum A247 was achieved more quickly.
Inhibition of Enzymatic Activity. The effects of inhibitors or disulfide bond reduction on enzymatic activities were done as described above except that the enzymes were pre-mixed (3 hrs, 25° C.) with 10 molar excess of inhibitor (or DTT) prior to addition to the substrate (140-150 molar excess relative to the catalyst). Activities were monitored spectrophotometrically as above and were compared to uninhibited controls.
In addition, test were performed which compared the activity of the two proteases under differing temperature parameters.

[3] = Loss of pepzyme activity on storage in solution and on freezing and thawing; format: physicochemical
Procedure: ChPepz solution was made in 10^-3 N HCl, since it will not digest itself in this solvent. Solutions of ChPepz were always made immediately before use. […] After mixing ChPepz with substrate (BTEE), there was typically a lag of 2-5 min (depending on pepzyme/substrate ratio) before any change in A256 was observed. However, in the early stages of the purification, the activity needed to be monitored over a period of several hours. It was important to ensure that negative controls (containing unrelated peptides in amounts similar to those of ChPepz in the test samples) were also monitored at the same time because the background absorbance will increase and the test samples had to be corrected for this background. As the sample's purity improves, maximum A256 was achieved more quickly. See, e.g., Atassi, M. Z. in Immunochemistry of Proteins, ed. M. Z. Atassi, Vol. 2, pp. 77-176, Plenum, New York, N.Y. (1977); King, D. S., et al. Int. J. Pept. Prot. Res. 36: 255-266 (1990).
TrPepz solutions were always made immediately before use. […] In the early stages of the purification, the activity was always monitored over a period of several hours. Negative controls (containing unrelated peptides in amounts similar to those of TrPepz in the test samples) were also monitored at the same time because the background absorbance will increase and the test samples had to be corrected for this background. […]

[4] = tested on: model peptides (SEQ ID NO:7-10); assay: Action of TrPepz on model peptides; format: biochemical
[5] = TAME, pH 8.0 and 25° C., cited from earlier work

QLEPSTSSAVPLIGKG
cleaved bond (TrPepz): Lys-Gly

cyclo(-S-cystinyl-glycyl-tyrosyl-histidyl-phenylalanyl-glycyl-glycyl-seryl- aspartyl-glycyl-glutamyl-glycyl-seryl-aspartyl-glycyl-glycyl-valyl-seryl-tryptophanyl-glycyl-leucyl-glycyl-glycyl-aspartyl-glycyl-alanyl-alanyl-histidyl-cystinyl-S) (CGYHFGGSDGEGSDGGVSWGLGGDGAAHC; disulfide 1-29) [TrPepz]
hydrolytic activity on BTEE [1]: zero activity; also recorded: no effect; also recorded: not hydrolyzed; also recorded: not hydrolysed
hydrolysis of myoglobin and casein, peptides compared with those of the respective enzyme (myoglobin and casein; 37° C., pH 8.0, 3 1/2 hrs (ChPepz) or 8 hrs (TrPepz)): essentially the same as the pattern of the respective protein obtained by tryptic hydrolysis
proteolytic activity in presence of DIFP (myoglobin and casein; protein substrates): completely inhibited
proteolytic activity in presence of PMSF (myoglobin and casein; protein substrates): completely inhibited
proteolytic activity in presence of TPCK (myoglobin and casein; protein substrates): no effect
efficiency at hydrolyzing Lys-Lys, Lys-Lys-Lys, Arg-Lys and Lys-Arg bonds compared with trypsin (myoglobin and casein; yields of lysine and arginine in hydrolysates): more efficient than trypsin
activity on TAME after reduction of the disulfide bond (cyclic structure) ([2]; 10 molar excess of DTT): zero activity; also recorded: fully inactivated; also recorded: completely lost
activity on TAME in presence of TPCK ([2]; 10 molar excess of TPCK): the two curves superimposed; also recorded: not by TPCK; also recorded: not affected
activity on TAME in presence of BPTI ([2]; 10 molar excess of inhibitor): zero activity; also recorded: completely inhibited; also recorded: inhibited entirely
activity on TAME in presence of DIFP ([2]; 10 molar excess of inhibitor): zero activity; also recorded: fully inactivated; also recorded: inhibited entirely; also recorded: completely inhibited
activity on TAME in presence of PMSF ([2]; 10 molar excess of inhibitor): zero activity; also recorded: fully inactivated; also recorded: inhibited entirely; also recorded: completely inhibited
activity on TAME in presence of human α1 -antitrypsin ([2]; 10 molar excess of inhibitor): zero activity; also recorded: completely inhibited; also recorded: inhibited entirely
activity on TAME in presence of soybean trypsin inhibitor ([2]; 10 molar excess of inhibitor): completely inhibited; also recorded: inhibited entirely
% Activity of Native Enzyme at 35° C. ([2]; Temp. 10): 7.4%
% Activity of Native Enzyme at 35° C. ([2]; Temp. 35): approx. 40%
% Activity of Native Enzyme at 35° C. ([2]; Temp. 48): approx. 50%
lag before any change in A247 ([2]; after mixing with substrate, depends on pepzyme/substrate ratio): 2 to 5 min
Km [2]: 2420 ± 90 µM
kcat [2]: 85 ± 2.6 sec.^-1
kcat /Km [2]: 35000 M⁻¹ s⁻¹
rate of TAME hydrolysis relative to the rate obtained with the enzyme itself ([2]; relative to trypsin): about 40%
inhibition by p-nitro analine ([2]; will not act on chromogenic substrates): inhibited
freezing and thawing cycles to complete loss of activity [3]: 5 cycles
time to complete loss of activity on storage in solution ([3]; 4° C.): two
hydrolysis of the Lys-Gly bond of peptide SEQ ID NO:7 ([4]; 3 hrs, molar ratio of substrate/TrPepz, 1:60): over 95%
cleavage of lysozyme sequences SEQ ID NO:8, 9, 10 at the C-bond of lysine and arginine ([4]; no other products): completely cleaved

DNYRGYSLG
cleaved bond (TrPepz): Arg-Gly

B1: Trypsin: native bovine trypsin (TPCK-trypsin, Worthington), positive control (protein, UniProt P00760 24-246, looked up)
Serine protease 1: IVGGYTCGANTVPYQVSLNSGYHFCGGSLINSQWVVSAAHCYKSGIQVRLGEDNINVVEGNEQFISASKSIVHPSYNSNTLNNDIMLIKLKSAASLNSRVASISLPTSCASAGTQCLISGWGNTKSSGTSYPDVLKCLKAPILSDSSCKSAYPGQITSNMFCAGYLEGGKDSCQGDSGGPVVCSGKLQGIVSWGSGCAQKNKPGVYTKVCNYVSWIKQTIASN
modifications: TPCK-treated
notes: native bovine trypsin (TPCK-trypsin, Worthington), positive control
hydrolytic activity on BTEE [1]: zero activity; also recorded: does not hydrolyze
hydrolytic activity on BTEE ([1]; listed as trypsin): not hydrolysed
Km ([5]; Lorand et al. 1961, read-out: Km reported value): 2760 µM
kcat reported value ([5]; Martin et al. 1959): 187 s⁻¹
% Activity of Native Enzyme at 35° C. ([2]; Temp. 10): 4.5%
% Activity of Native Enzyme at 35° C. ([2]; Temp. 35): 100%
% Activity of Native Enzyme at 35° C. ([2]; Temp. 48): 67%
Km [2]: 2560 ± 160 µM
kcat [2]: 221 ± 9.7 sec.^-1
kcat /Km [2]: 86000 M⁻¹ s⁻¹
kcat ([2]; listed as trypsin): 221 sec.^-1
hydrolytic activity on TAME ([2]; in words): hydrolyzes
